Compound: N#CC1(c2ccc(NC(=O)c3cccnc3NCc3ccncc3)cc2)CCCC1 [Apatinib] + Nc1nc2[nH]cc(CCc3ccc(C(=O)N[C@@H](CCC(=O)O)C(=O)O)cc3)c2c(=O)[nH]1 [Pemetrexed] (partner 0.2 µM)
Experiment: relative viability (nuclei count vs DMSO), 5 days (fraction); higher = more cells survive
In short: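 After 5 days of treatment, lung cancer cells in 1536-well plates were fixed and stained in a single step (final 0.05% Triton X-100, 1% formaldehyde, 1 ug/ml Hoechst) and their nuclei counted on 4× images. Treatment had been applied by pin tool the day after seeding as one drug alone or as a fixed anchor-drug dose with five library-drug doses (not always all listed) in √10 steps. Relative viability is the nuclei count of treated wells divided by that of vehicle wells, and values are medians of duplicate plates.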

**Q.** Which results are given for NCI-H460?
**A.** relative viability (first compound 0.08 µM): 0.0617; relative viability (first compound 0.253 µM): 0.0695; relative viability (first compound 0.8 µM): 0.0575; relative viability (first compound 2.53 µM): 0.0757; relative viability (first compound 8 µM): 0.0845

Source: the supplement of paper PMC10307832
